Results reported in patent US8313779B2, “Evaluation method and screening method for substance having action of activating/suppressing innate immunity, agent and food product for activating/suppressing innate immune mechanism and method for producing the same” (Genome Pharmaceuticals Institute Co., Ltd., priority 2007, dated 2012).

Test system: isolated head muscle specimen of the silkworm larva
Test: Inhibition of induced muscular contraction in the isolated head muscle specimen of the silkworm larva (pre-injection of test substance, then inducer)
Format: in vivo, silkworm (Bombyx mori) larva
Method: The experiment using kainic acid (0.2 mM) in place of peptideglycan was carried out as a control experiment. It has been known that kainic acid is an agonist of a glutamic acid receptor and induces the muscular contraction by strongly binding to a glutamine receptor to excessively stimulate the nerve. It has been already known that the muscular contraction induced by kainic acid is inhibited by L-glutamic acid.
The experiment using kainic acid (0.2 mM) in place of BmPP was carried out as the control experiment.
As the control experiment, 0.9% NaCl in place of the rabbit antiserum against BmPP was injected.

Compound	inhibition of muscular contraction induced by BmPP (L-glutamic acid 40 mM, 0.05 mL pre-injected, then BmPP (FIG. 4))	inhibition of muscular contraction induced by kainic acid (L-glutamic acid 40 mM, 0.05 mL pre-injected, kainic acid 0.2 mM (FIG. 2))	inhibition of muscular contraction induced by peptideglycan (L-glutamic acid 40 mM, 0.05 mL pre-injected, peptideglycan 0.5 mg/mL or 5 mg/mL, 0.05 mL (FIG. 2))	inhibition of muscular contraction induced by β-glucan (L-glutamic acid pre-injected)	inhibition of muscular contraction induced by BmPP (N-acetylcysteine 200 mM, 0.05 mL pre-injected, 0.4 μg/mL BmPP (FIG. 6))	inhibition of muscular contraction induced by kainic acid (N-acetylcysteine 200 mM, 0.05 mL pre-injected, 0.2 mM kainic acid (FIG. 6))	inhibition of muscular contraction induced by air (N-acetylcysteine 200 mM, 0.05 mL pre-injected, 0.05 mL of air (FIG. 6))	inhibition of muscular contraction induced by H2O2 (N-acetylcysteine 200 mM, 0.05 mL pre-injected, 125 mM H2O2 (FIG. 6))	inhibition of muscular contraction induced by peptideglycan (N-acetylcysteine 200 mM, 0.05 mL pre-injected, peptideglycan = autoclaved Staphylococcus aureus (FIG. 6))
N[C@@H](CCC(=O)O)C(=O)O [L-glutamic acid]	not inhibited	inhibited	not inhibited	not inhibited	–	–	–	–	–
CC(=O)N[C@@H](CS)C(=O)O [N-acetylcysteine]	–	–	–	–	no inhibitory effect	no inhibitory effect	inhibited	inhibited	inhibited
